Results published in US20240254135A1, “POLYPHENOL COMPOUNDS” (Epirium Bio Inc., priority 2022, published 2024).

Experiments:
[1] = molecular target: T1, mitochondrial ATP synthase (Mus musculus, UniProt P56480+Q03265); test: ATP synthesis (oxygen consumption, Seahorse XF96) in fresh heart mitochondria; assay type: biochemical
T1 construct: from tissue; host or cells: mouse heart, isolated mitochondria (fresh or frozen)
Excerpt: To assess whether the fraction of synthetic and reverse hydrolytic activities of mitochondrial ATP synthase can be measured in the same preparation, a protocol was developed to monitor changes in oxygen consumption and proton release in response to changes in mitochondrial ATP synthase activity. The proton released and the concomitant changes in the pH can be monitored using the ECAR (extracellular acidification) channel in the Agilent Seahorse XF analyzer using isolated mitochondria, to ensure that the changes in pH cannot be attributed to glycolysis or other contributors to ECAR.
Mice were anesthetized with isoflurane followed by a cervical dislocation, and the heart was immediately removed and placed in ice cold relaxation buffer (5 mM sodium pyrophosphate, 100 mM KCl, 5 mM EGTA, 5 mM HEPES; pH 7.4). The heart was squeezed with tweezers to remove blood, minced with scissors, and then placed in a glass-glass Dounce homogenizer with 3 mL of HES homogenization buffer (250 mM sucrose, 5 mM HEPES, 1 mM EDTA; pH to 7.2, adjusted with KOH). The heart tissue was homogenized first with the loose pestle and followed by the tight pestle. The homogenized tissue was placed in a pre-chilled 15 ml conical tube and centrifuged at 900×g (4° C.) for 10 minutes (min). The supernatant was removed, placed in a new tube and centrifuged again at 900×g for 10 min. The supernatant was then transferred to 2 mL microcentrifuge tubes and centrifuged at 10,000×g (4° C.) for 10 min. The mitochondrial pellets were re-suspended in ice cold HES buffer and mitochondrial protein was measured with a BCA assay (Pierce). The concentrated mitochondrial pellet was stored on ice.
Heart mitochondria (0.75-1.5 μg) were loaded into a Seahorse XF96 microplate in 20 μL of MAS (70 mM Sucrose, 220 mM Mannitol, 5 mM KH2PO4, 5 mM MgCl2, 1 mM EGTA, 2 mM HEPES; pH 7.2) plus 1% free fatty acid BSA containing substrates. The loaded plate was centrifuged at 2,000×g for 5 min at 4° C. […]
Oxygen consumption was measured in isolated fresh intact mitochondria from mouse heart, as oxygen consumption is linked to maximal ATP synthesis and proton release when mitochondria are respiring either in the presence of substrates and ADP (ATP synthesizing mitochondria or state 3) or in the presence of substrates but not ADP (state 4). […]
OCR and ECAR were measured in a Seahorse XF96 analyzer under basal conditions as well as after injection of 2 μM oligomycin, two sequential additions of 1.5 μM FCCP, followed by 1 μM rotenone with 2 μM antimycin A. Respiratory parameters were calculated according to standard protocols, and all rates were corrected for non-mitochondrial respiration/background signal by subtracting the oxygen consumption rate insensitive to rotenone plus antimycin A.

[2] = molecular target: T1, mitochondrial ATP synthase; test: Maximal ATP hydrolysis capacity in frozen heart mitochondria; assay type: biochemical; settings: frozen mitochondria (FIGS. 3 and 4)
Experimental: ATP hydrolysis capacity or state 4 acidification was measured using Seahorse XF96 as described in Divakaruni et al. (2018) Anal Biochem 552:60-65 and Acin-Perez et al. (2021) Life 11(9):949, in MAS (70 mM Sucrose, 220 mM Mannitol, 5 mM KH2PO4, 5 mM MgCl2, 1 mM EGTA, 2 mM HEPES; pH 7.2). Plates were loaded with 0.75-1.5 μg of mouse heart mitochondria, or 25 μg of cell lysate. Cell lysates were prepared by subjecting the samples to 4 cycles of free thaw (liquid nitrogen—37° C. water bath) before measuring protein concentration. When assessing compounds effect on respirometry, the compounds were added in MAS after sample centrifugation. Initial respiration of the samples was sustained by the addition of 5 mM succinate+2 μM rotenone in the MAS after centrifugation. Injections were performed at the following final concentration in the well: Antimycin A (2 μM), oligomycin (5 μM), FCCP (1 μM), ATP (20 mM). To assess maximal ATP concentration, ATP was injected consecutively.
An additional assay was developed to determine the maximal ATP hydrolysis capacity in frozen mitochondria. Maximal ATP hydrolytic capacity was assessed in frozen heart mitochondria where mitochondrial respiration is inhibited by Antimycin A and maximal ATP hydrolysis is driven by co-injection of FCCP and ATP, followed by inhibition in the presence of oligomycin.

change in ATP synthesis ([1]; Complex II substrates, fresh mitochondria): no change
change in ATP synthesis ([1]; fresh heart mitochondria (FIG. 1, FIG. 2)): no change
decrease in hydrolysis [2]: 25%
SMILES: Oc1ccc2c(c1)OC(c1ccc(O)c(C(F)(F)F)c1)C(O)C2 (single isomer, unassigned) [Compound 77b, 2-(4-hydroxy-3-(trifluoromethyl)phenyl)chromane-3,7-diol]
change in ATP synthesis ([1]; Complex I substrates, fresh mitochondria): no change
